How the values were obtained:
[1] = molecular target: T1, PHD2 (Homo sapiens, UniProt Q9GZT9); assay: O2 dependence of PHD2-catalyzed hydroxylation (sealed vials, N2/O2 mixes); type: biochemical; conditions: PHD2 with the named 19-mer substrate; 4 μM PHD2, 50 μM Fe(II), 4 mM L-ascorbate, 50 mM HEPES pH 7.5, 37 °C, O2 levels set by mass flow controllers; triplicate assays; read-out: Km^app(O2)
T1 construct: The catalytic domain of PHD2 (residues 181–426) was purified as described; made in house
Method: The O2 dependence of FIH-catalyzed reactions was determined by conducting enzymatic assays in an “In vivo 500 Hypoxia Workstation” (Ruskinn) using buffers pre-equilibrated under different pO2 values for 24 h. The O2 dependence of PHD2-catalyzed reactions was determined by conducting enzymatic assays in sealed glass vials with variable N2/O2 contents ([42]). Reactions were stopped by spotting samples onto a matrix-assisted laser desorption/ionization-time of flight mass spectrometry (MALDI-TOF-MS) target plate and immediately mixing with α-cyano-4-hydroxycinnamic acid matrix. Hydroxylation levels were assessed by MALDI-TOF-MS as described ([46]).
FIGURE 4. O2 dependence of FIH- and PHD2-catalyzed hydroxylation of HIF-1/2α. A, O2 dependence of PHD2-catalyzed hydroxylation of HIF-1/2α CODD/NODD 19-mer peptides. 4 μM PHD2, peptide (varied), 50 μM Fe(II), 2OG (varied), 4 mM L-ascorbate in HEPES 50 mM (pH 7.5) were incubated at 37 °C. The different O2 levels were maintained using mass flow controllers ([42]), and the hydroxylation levels were analyzed by MALDI-TOF-MS. B, O2 dependence of FIH-catalyzed hydroxylation of CAD HIF-1/2α 35-mer peptides. Conditions were as follows. 5 μM FIH, 500 μM peptide, 50 μM Fe(II), 1 mM 2OG, 1 mM L-ascorbate in HEPES 50 mM (pH 7.5) were incubated at 37 °C in a hypoxia work station under different pO2. […] Error bars, S.D. of triplicate assays.

[2] = molecular target: T1, PHD2; assay: Rapid quench-flow, PHD2 pre-steady-state product and succinate formation; type: biochemical; conditions: same mixture as stopped-flow, O2-saturated buffer 1:1, 5 °C, quenched with 1% CF3CO2H; for Rapid quench-flow kproduct: peptide hydroxylation by MALDI-TOF-MS, single exponential fit; for Rapid quench-flow ksuccinate: succinate by LC-MS
Method: Rapid quench-flow experiments were performed using the same conditions and preparation of the assay mixture as used in stopped-flow experiments. Rapid quench-flow equipment (TgK Scientific Ltd.) in an anaerobic glove box was used for the experiments. Samples were quenched with 1% CF3CO2H and analyzed using MALDI-TOF-MS (peptide hydroxylation) as described above or liquid chromatography-mass spectrometry (LC-MS, for succinate production). For LC-MS, chromatographic separation was performed at 50 °C using a Waters ACQUITY BEH Amide 1.7-μm, 2.1 × 100-mm column on a Waters ACQUITY^TM ultraperformance liquid chromatography system (Waters Corp., Milford, MA). The following eluents were used: mobile phase A: 10% H2O, 90% acetonitrile (v/v), 10 mM ammonium formate; mobile phase B: 50% H2O, 50% acetonitrile (v/v), 10 mM ammonium formate. The elution gradient was 0–7.0 min linear from 10 to 30% B, and 7.0–9.0 min at 10% B for re-equilibration of the column. A constant flow rate of 0.4 ml/min was used. Analytes were detected in negative ionization mode using single reaction monitoring on a Quattro triple quadrupole mass spectrometer (Waters) with a cone voltage of 15 V and a capillary voltage of 3.0 kV. The desolvation temperature was set to 250 °C, and the source temperature was set to 120 °C.
To investigate correlation of the spectroscopic observations with rates of product accumulation, equivalent reactions were analyzed by rapid quench-flow methodology. Anerobically prepared PHD2·Fe(II)·2OG·peptide substrate complexes were mixed with O2-saturated buffer in a 1:1 ratio; reactions were quenched at defined time points with 1% aqueous CF3CO2H. The level of peptide hydroxylation was assessed by MALDI-TOF-MS ([42]), and succinate accumulation was analyzed by LC-MS. To obtain rate constants for product accumulation, the results were fitted with a single exponential function (Fig. 5E and Table 3).

T1 sequence (Q9GZT9 181-426): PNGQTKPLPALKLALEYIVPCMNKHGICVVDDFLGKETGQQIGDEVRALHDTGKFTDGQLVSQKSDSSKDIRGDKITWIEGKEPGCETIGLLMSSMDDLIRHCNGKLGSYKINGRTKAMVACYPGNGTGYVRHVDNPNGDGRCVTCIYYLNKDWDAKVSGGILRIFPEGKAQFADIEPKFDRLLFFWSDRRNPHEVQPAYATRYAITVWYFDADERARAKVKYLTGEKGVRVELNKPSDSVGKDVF

Sequence	Km [1]	Rapid quench-flow kproduct [2]	Rapid quench-flow ksuccinate [2]
EELAQLAPTPGDAIISLDF [HIF-2α NODD, 19-mer fragment (398–416) of the HIF-2α N-terminal oxygen-dependent degradation domain, PHD2 substrate]	410 ± 80 µM	0.0199 ± 0.0032 s⁻¹	0.0270 ± 0.0060 s⁻¹
ELDLETLAPYIPMDGEDFQ [HIF-2α CODD, 19-mer fragment (523–541) of the HIF-2α C-terminal oxygen-dependent degradation domain, PHD2 substrate]	> 450 µM	0.0124 ± 0.0030 s⁻¹	0.0120 ± 0.0070 s⁻¹

Source: PMC4528135, “Kinetic Investigations of the Role of Factor Inhibiting Hypoxia-inducible Factor (FIH) as an Oxygen Sensor” (The Journal of Biological Chemistry, 2015)
